The test system of data set [1] is carrageenan rat paw edema. Kind of data set: Carrageenan Rat Paw Edema Test. In kind it is in vivo, Male Sprague-Dawley rats. Here is the method:
Carrageenan Rat Paw Edema Test
Male Sprague-Dawley rats (Charles River Laboratories) are weighed and food fasted overnight. The animals are then divided into four to six groups of six animals each according to body weights (average about 145 g) so that each group has about the same average body weight (within 10 g).
The following morning animals are dosed with the test compound and then placed in individual cages. For oral dosing, the drug is suspended in 0.5% methyl cellulose with 2% Tween 80, and delivered via stomach tube in a 5 ml volume.
Paw volumes (0 time) are determined on both hind paws with a mercury displacement device equipped with a transducer and digitizer. One hour after dosing the test compound, the animals are placed in a plastic restrainer and 50 ul of a 1% (w/w) carrageenan solution in 0.9% saline is injected into the ventral surface of the left rear paw. Four hours after the carrageenan injection, the paw volumes are again determined.
The results are expressed as percent inhibition of the mean paw volume of the test group relative to the control group. Statistical differences are determined by one way analysis of variance. ID35 values are determined by regression analysis.
(In general: The carrageenan paw model is a standard test of acute inflammation.)

Data set [2] is described as follows: gastric damage / gastrointestinal irritation. Conditions: levels significantly greater than the therapeutic dose, test animals. Type of data set: in vivo.
Data set [3] can be described thus: toxicity (acute oral toxicity). Type of data set: in vivo. Conditions: test animals.
For data set [4], the system named is rheumatoid arthritis or osteoarthritis. Kind of data set: capsules in a patient afflicted with rheumatoid arthritis or osteoarthritis. In kind it is in vivo. Conditions: capsule, 200 mg Compound 11, oral, once a day. Here is the method:
Pharmaceutical Compositions in Capsule Form
Capsules are prepared by conventional methods, comprised as follows: […]

The test system of the next data set is rheumatoid arthritis. Kind of data set: tablets in a patient suffering from rheumatoid arthritis. Type of data set: in vivo. Conditions: tablet, 200 mg Compound 11, oral, two times daily. The method, then: (§1) Pharmaceutical Compositions in Tablet Form
(§2) Tablets are prepared by conventional methods, such as mixing and direct compaction, formulated as follows: […]

Data set [5] relates to adjuvant arthritis (modified Freund's adjuvant). Put plainly: Adjuvant Arthritis - Immunomodulatory. Type of data set: in vivo, Male Sprague-Dawley rats. Conditions: 15 mg/kg, 2 x/day, day -1 through day 7. The method, then:
Adjuvant Arthritis Methodology
Male Sprague-Dawley rats weighing 167-170 gm are allowed to acclimate to the laboratory for at least 3 days. Ten rats are then assigned to the healthy control group and the remaining rats are assigned to the arthritic group. On day 0, the rats in the arthritic group are injected subcutaneously in the middle of their tail with a modified Freund's adjuvant (MFA) at a dosage of 0.05 ml/100 gm body weight. The MFA is made by grinding Mycobacterium butyricum (Mb) and then mixing with mineral oil at a concentration of 10 mg Mb/ml of mineral oil. This is mixed in an Omni mixer for 45 minutes.
Paw volumes and body weights are determined on days -1, 6, 13, 19, 26, and 29. On day 19, paw volume changes from day -1 are determined for the arthritic group. The rats with paw volume changes≥0.50 ml but ≤2.50 ml are randomized by paw volume changes into the treatment groups on day 20. On days 20 through 28, the rats are orally dosed twice a day (once a day on weekends). On day 29, two representative rats from each treatment group are photographed, paw volumes and body weights are determined, and then the rats are sacrificed with CO2 and x-rays are taken.
The radiographs are used to grade bone resorption. Bone resorption is graded in 20 areas of the fore and hind paws. The areas for grading on the hind paw are: distal femur end, proximal tibia and tibula, distal end of the tibia and the small bone under the tibia, calcaneous, tarsus, and metatarsus. The areas on the fore paws are: radius, ulna, carpus, and metacarpus. Each area is given a grade of 0 (no resorption) or 1 (resorption) for possible grade of 20 of each animal.
The same procedures as for the therapeutic, except the rats are randomly assigned to the treatment groups including the healthy control group by body weights on day -2. Paw volumes and body weights are determined on days -1, 6, 13, 20, and 27. The rats are treated from day -1 through day 7. The rats are sacrificed on day 28 and x-rayed. The radiographs are graded as above using a severity scale from 0 (no resorption) to 3 (severe resorption).

In another data set the test system is inflammation. Kind of data set: anti-inflammatory activity in animal models of inflammation. In kind it is in vivo. The method, then: (§3) In order to determine and assess pharmacological activity, testing of these compounds in animals is carried out using various assays known to those skilled in the art. […] Examples of such known tests include the carrageenan rat edema test, the oxazolone-induced inflamed mouse ear test, and the arachidonic acid-induced inflamed mouse ear test. Anti-pyretic acitivity may be tested using art-known rat models, and analgesic acitivty may be tested in art-known models such as the acetylcholine model in mice, the Randall-Selitto model in rats, and the hot-plate test in mice. Another useful art-known test is the adjuvant arthritis test which is a useful model for assessing anti-inflammatory activity and anti-resorptive activity in a chronic, rather than acute, model.
These and other appropriate tests for pharmacological activity are disclosed and/or referred to in U.S. Pat. No. 4,130,666, issued Dec. 19, 1978 to Moore; U.S. Pat. No. 4,440,784, issued Apr. 3, 1984 to Katsumi et al.; Japanese patent application No. 85/54315, published Mar. 28, 1985 by Katsumi et al.; European Patent Application Publication No. 59,090, published Sept. 1, 1982 by Yamanouchi Pharmaceutical Co., Ltd.; "Prostaglandin and Leukotriene Synthesis in Mouse Ears Inflamed by Arachidonic Acid", The Journal of Investigative Dermatology, 84, pp. 253-256 (1985); U.S. Pat. No. 4,431,656, issued Feb. […]

For a further data set, the system named is osteoarthritis. Put plainly: tablets in a patient suffering from osteoarthritis. The following applies: tablet, 200 mg Compound 11, twice daily. In kind it is in vivo. The method, then:
as §1, §2

Data set [6] can be described thus: oral anti-pyretic activity. Type of data set: in vivo. The method, then: as §3
The next data set has as its system cyclooxygenase ("COX"). Kind of data set: inhibition of cyclooxygenase in arachidonic acid metabolism. In kind it is biochemical.

SMILES strings stand for the structures.

Turning to `C#CCCCC(=O)c1cc(C(C)(C)C)c(O)c(C(C)(C)C)c1` [Compound 11, 4-(5'-hexynoyl)-2,6-di-t-butylphenol], the ED35 in data set [1] (4 h, oral, by regression analysis, read-out: ID35) came out at 4.8 mg/kg. For the same compound, the inhibition in vivo at 100 mg/kg in data set [1] (po, 100 mg/kg P.O., paw volume 4 h after carrageenan, vs control group, read-out: Percent Inhibiton at 100 mg/kg dose P.O) came out at 67.6%. Moreover, the “gastric damage after oral dosing” value in data set [2] was “very low or no gastric damage”. Moreover, in data set [3], the acute oral toxicity entry is given as “very low acute oral toxicity”. For the same compound, the reduction of symptomology result in data set [4] is “substantially reduces the symptomology”. Moreover, the reduction of inflammation result with rheumatoid arthritis is “significantly reduces the inflammation”. Also, in data set [5], the “Body Weights % Increase” value is listed as 30% and the “Paw Volume % Decrease” value came to 48%. In addition, in data set [5] (severity scale 0-3), the “Bone Resorption % Inhibition” value worked out at 57%. Also, the “oral activity in several animal models of inflammation” value in the data set on inflammation is “very good oral activity”. Moreover, in the data set with osteoarthritis, the benefit result is “significant benefit”. For the same compound, the oral anti-pyretic activity entry in data set [6] is “oral anti-pyretic activity”. Besides, the “inhibition of cyclooxygenase (COX)” value in the data set on cyclooxygenase ("COX") is on record as “dual inhibitor”.

These data come from patent publication US4708966A, “Novel anti-inflammatory agents, pharmaceutical compositions and methods for reducing inflammation” (The Procter & Gamble Company, priority 1986, dated 1987).
